Results as given in patent US20250195596A1, “COMPOSITION FOR PREVENTING OR TREATING RETINAL DISEASE, CONTAINING CENTELLA ASIATICA EXTRACT” (GENENCELL INC., priority 2018, published 2025).

Test system: ARPE-19 cells
Assay: Cell protection from oxidative stress caused by A2E (MTT)
Format: cell-based
Conditions: ARPE-19, A2E accumulated 3 days, 30 μM, 48 hours, UV 5 minutes; in % (unit assumed)
Protocol: To determine the effect of inhibiting macular degeneration, the cell death inhibitory effect of A2E was measured. As test cells, ARPE-19 cells, which are retinal pigment epithelial cells, were used, and the medium, medium composition, and experimental conditions were the same as in Experimental Example 1. ARPE-19 cells were dispensed into a 24-well plate at a concentration of 3×10^4 cells/well and cultured for 24 hours, and then A2E was accumulated at a concentration of 3 µM for 3 days. In order to measure the effect of protecting cells from oxidative stress caused by A2E, the cells were treated with 25 μg/mL, 50 μg/mL, and 100 μg/mL of the 50% alcohol extract of Centella asiatica, and as a positive control, the cells were treated with 30 μM of lutein, which is known to have an inhibitory effect on macular degeneration, and cultured for 48 hours, and after 48 hours, the cells were irradiated with ultraviolet rays using a UV lamp for 5 minutes. The cell growth rate was measured at an absorbance of 570 nm using an MTT reagent, and the absorbance of each test solution was measured and compared with a control not treated with A2E.

CC1=C[C@H](O)CC(C)(C)[C@H]1/C=C/C(C)=C/C=C/C(C)=C/C=C/C=C(C)/C=C/C=C(C)/C=C/C1=C(C)C[C@@H](O)CC1(C)C [Lutein, lutein]
cell growth rate compared with a control not treated with A2E: 71.5 ± 8.22
